What was measured:
[1] = system: other forms of liver alcohol dehydrogenase; experiment: Inhibition of the other (pyrazole-sensitive) forms of liver alcohol dehydrogenase; format: biochemical, human; conditions: 0.2 mM 4-methylpyrazole, 100 mM ethanol, remainder of the purified enzyme forms
Excerpt: (§1) However, purification of these enzymes has been a complicated and difficult procedure. […] Elution is preferably carried out with pyrazole solution or with a lower alkanol having at least two carbon atoms, e.g., ethanol, 1-propanol, 1-butanol, 1-pentanol, and the like. Further purification and separation of isoenzymes from the bound portion can be achieved by alcohol gradient elution. The alcohol dehydrogenase of the bound portion can be separated from the NAD after elution, if desired, by conventional dialysis procedures. […] The anodic band of liver alcohol dehydrogenase, as identified by Li et al., Biochem. Biophys. Res. Comm.

[2] = system: human liver alcohol dehydrogenase; experiment: Inhibition of alcohol dehydrogenase activity of starting human liver; format: biochemical; conditions: 33 micromolar 4-methyl-pyrazole, pH 10, frozen human liver starting material
Procedure: Starting with 100 g frozen human liver having a specific activity of pH 10 of about 0.05 I.U./mg and low inhibition (~ 75%) by 33 micromolar 4-methyl-pyrazole at pH 10 as well as high intensity of stain for the anodic band on starch gel electrophoresis, the liver was homogenized in 2.5 volumes water at 4° C., centrifuged for 30 min. at 30,000 rpm in a 30 rotor to provide 240 ml of clear supernatant assaying at 58 I.U. of pyrazole-insensitive activity with a specific activity of 0.002 I.U./mg.

[3] = biological target: T1, II-ADH (anodic band of liver alcohol dehydrogenase) (Homo sapiens, UniProt P08319); experiment: Inhibition of purified II-ADH (anodic band, pyrazole-insensitive liver alcohol dehydrogenase) activity; format: biochemical; conditions: 33 micromolar 4-methyl-pyrazole, product after agarose-AMP
T1 construct: Starting with 100 g frozen human liver; from tissue; host or cells: human liver (frozen)
T1 sequence (P08319 2-380 limits assumed): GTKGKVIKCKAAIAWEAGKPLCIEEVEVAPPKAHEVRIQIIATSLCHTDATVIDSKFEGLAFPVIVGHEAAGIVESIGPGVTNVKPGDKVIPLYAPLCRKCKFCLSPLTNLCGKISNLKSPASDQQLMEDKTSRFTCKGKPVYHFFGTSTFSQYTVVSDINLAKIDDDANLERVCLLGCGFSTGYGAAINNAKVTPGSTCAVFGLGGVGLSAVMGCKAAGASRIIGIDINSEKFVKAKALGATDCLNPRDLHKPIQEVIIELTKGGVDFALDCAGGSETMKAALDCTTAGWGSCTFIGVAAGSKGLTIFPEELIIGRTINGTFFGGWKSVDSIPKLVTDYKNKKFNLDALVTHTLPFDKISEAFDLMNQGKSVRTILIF
Excerpt: as §1

alcohol dehydrogenase = experiment: Dissociation of binary complex of alcohol dehydrogenase with NAD; format: binding; conditions: read-out: dissociation constant of the complex
Excerpt: The binary complex, in which two molecules of NAD are complexed with 1 molecule of alcohol dehydrogenase, can be prepared simply by mixing NAD with the crude extract of alcohol dehydrogenase. In order to ensure that substantially all of the alcohol dehydrogenase is present in solution in the form of the binary complex, it is desirable to employ an excess of the amount of NAD over that theoretically required. […] Although larger amounts of NAD can be used, there is no advantage in using a concentration above about 10^-3 molar since optimum results are achieved at that concentration with no further improvement even when the concentration of the NAD is 10^-2 molar or even higher, the results being approximately the same at these higher concentrations. The aqueous medium containing the binary complex may be acidified if desired. Satisfactory results are obtained at pH 8.0, but may be improved by decreasing the pH to approximately 7.5 in order to achieve optimum results; however, no further improvement is achieved by further lowering of the pH, the results remaining about the same even at a pH below 6.

Row | inhibition of activity [1] | inhibition [2] | inhibition (in words) [3] | Kd (alcohol dehydrogenase) [µM] | Structure (SMILES)
1 | more than 90% | ~ 75% | virtually uninhibited | – | Cc1cn[nH]c1 [4-methylpyrazole]
2 | – | – | – | ~1 | NC(=O)c1ccc[n+]([C@@H]2O[C@H](COP(=O)([O-])OP(=O)(O)OC[C@H]3O[C@@H](n4cnc5c(N)ncnc54)[C@H](O)[C@@H]3O)[C@@H](O)[C@H]2O)c1 [NAD]

— patent US4131727A, “Method of purifying alcohol dehydrogenase and affinity resin therefor” (President and Fellows of Harvard College, priority 1978, dated 1978)
